From PMC8225959, “Clickable Radiocomplexes With Trivalent Radiometals for Cancer Theranostics: In vitro and in vivo Studies” (Frontiers in Medicine, 2021)

Experiments:
[1] = test system: PC3 xenografts; experiment: Ex vivo biodistribution of [90Y]Y-DOTA-Tz in mice bearing PC3 xenografts; details: PC3 xenograft mice
Description: Currently, we are investigating the application of click chemistry using biomolecules that target prostate cancer. Therefore, since a non-specific tumor uptake might interfere with the specificity of the pre-targeting approach, we have performed in vivo studies of [^90Y]Y-DOTA-Tz in mice bearing PC3 xenografts to assess the possible non-specific uptake of the clickable radiocomplex in the tumor and in the tumor microenvironment. […] This type of optical imaging offers a high spatial resolution, and despite a limited penetration depth allows to image ^90Y, which is not easily feasible using PET or SPECT imaging ([32]). […] At the selected time points the majority of the compound was retrieved in the urine, with 88 and 96% of the I.D. excreted 1 and 2 h post-injection, respectively. page 9: from whole animal body. Blood samples were taken by cardiac puncture at sacrifice. […] The animals were kept under […] volume of approximate 390 ± 190 mm3. […] […] carried out on groups of 8 mice (n = 4). […] The animals were weighed and dissected.

[2] = test system: PC3 tumor; experiment: Cerenkov luminescence imaging of PC3 tumor-bearing mice pretargeted with TCO-PEG4-AR then [90Y]Y-DOTA-Tz; assay type: in vivo; details: 1 nmol TCO-PEG4-AR, radiocomplex after 4 h
Experimental: The Cerenkov Luminescence Imaging of the prostate cancer PC3 tumor-bearing mice was carried out at different time points (15 min, 1 and 2 h) after intravenous injection of [^90Y]Y-DOTA-Tz. […] Thereafter, the CLI imaging of the PC3 tumor-bearing mice was carried out at different time points (15 min, 1 h). The images were obtained using PhotonIMAGER™ (BioSpace Lab).

[3] = Stability of the [90Y]Y-DOTA-Tz preparation (HPLC, radiolysis); assay type: physicochemical
Experimental: The radiolabelling with ^90Y was performed following the same procedure previously optimized for ^111In, using a buffer of 0.1 M ammonium acetate at pH 7 and heating the mixture at 80°C for 15 min. The DOTA-Tz chelator was added to a final concentration of 400–500 μM to yield [^90Y]Y-DOTA-Tz with specific activities up to 3.3 MBq/nmol and radiochemical yields above 90% (Supplementary Figure 4A). The radiocomplex [^90Y]Y-DOTA-Tz was synthesized with ~130 MBq of [^90Y]YCl3 and obtained in very high specific activity, after separation from the non-labeled DOTA-Tz chelator. The radiocomplex was recovered into phosphate buffer at pH 8 to neutralize the residual TFA from the HPLC mobile phase before its use in future biological studies. […] In order to stabilize the [^90Y]Y-DOTA-Tz preparation, a suitable ratio between the volume of phosphate buffer solution at pH 8 to neutralize the TFA from the HPLC purification and ascorbic acid as a radiolytic stabilizer had to be optimized. In initial experiments, the use of ascorbic acid as a buffer in the radiolabelling procedure led to the degradation of the tetrazine moiety. Similar effect was seen when the ascorbic acid solution (50 mg/mL) was added to the solution after labeling. […]

[4] = 1 h p.i., listed as [^90Y]Y-DOTA-Tz
[5] = 2 h p.i., listed as [^90Y]Y-DOTA-Tz

Biodistribution: Blood ([1]; 1 h p.i.): 1.59 ± 0.62 % I.D./g
Biodistribution: Bone ([1]; 1 h p.i.): 1.04 ± 0.25 % I.D./g
Biodistribution: Intestine ([1]; 1 h p.i.): 0.41 ± 0.2 % I.D./g
Biodistribution: Kidneys ([1]; 1 h p.i.): 3.65 ± 0.49 % I.D./g
Biodistribution: Liver ([1]; 1 h p.i.): 0.76 ± 0.07 % I.D./g
Biodistribution: Lung ([1]; 1 h p.i.): 1.24 ± 0.32 % I.D./g
Biodistribution: Muscle ([1]; 1 h p.i.): 0.5 ± 0.2 % I.D./g
Biodistribution: Pancreas ([1]; 1 h p.i.): 0.7 ± 0.32 % I.D./g
Biodistribution: Salivary Gland ([1]; 1 h p.i.): 0.68 ± 0.12 % I.D./g
Biodistribution: Spleen ([1]; 1 h p.i.): 1 ± 0.27 % I.D./g
Biodistribution: Stomach ([1]; 1 h p.i.): 0.65 ± 0.33 % I.D./g
Biodistribution: Tumour ([1]; 1 h p.i.): 1.0 ± 0.4 % I.D./g
Biodistribution: Blood [1, 4]: 1.59 % I.D./g
Biodistribution: Kidneys [1, 4]: 3.6 % I.D./g
Biodistribution: Blood ([1]; 2 h p.i.): 0.22 ± 0.01 % I.D./g
Biodistribution: Bone ([1]; 2 h p.i.): 0.54 ± 0.04 % I.D./g
Biodistribution: Intestine ([1]; 2 h p.i.): 0.17 ± 0.05 % I.D./g
Biodistribution: Kidneys ([1]; 2 h p.i.): 2.54 ± 0.71 % I.D./g
Biodistribution: Liver ([1]; 2 h p.i.): 0.49 ± 0.15 % I.D./g
Biodistribution: Lung ([1]; 2 h p.i.): 0.31 ± 0.04 % I.D./g
Biodistribution: Muscle ([1]; 2 h p.i.): 0.15 ± 0.01 % I.D./g
Biodistribution: Pancreas ([1]; 2 h p.i.): 0.27 ± 0.12 % I.D./g
Biodistribution: Salivary Gland ([1]; 2 h p.i.): 0.17 ± 0.02 % I.D./g
Biodistribution: Spleen ([1]; 2 h p.i.): 0.33 ± 0.16 % I.D./g
Biodistribution: Stomach ([1]; 2 h p.i.): 0.23 ± 0.08 % I.D./g
Biodistribution: Tumour ([1]; 2 h p.i.): 0.37 ± 0.17 % I.D./g
Biodistribution: Blood [1, 5]: 0.22 % I.D./g
Biodistribution: Kidneys [1, 5]: 2.5 % I.D./g
Biodistribution: Tumour [1, 5]: 0.37 % I.D./g
in vitro stability of the preparation ([3]; 3 μL ascorbic acid (50 mg/mL) and 147 μL phosphate buffer pH 8, up to 20 h after the radiolabelling): excellent in vitro stability
stability of the preparation ([3]; recovered into phosphate buffer pH 8, no stabilizer, after 2 h at room temperature): high degradation
SMILES: O=C([O-])CN1CCN(CC(=O)[O-])CCN(CC(=O)NCc2ccc(-c3nncnn3)cc2)CCN(CC(=O)[O-])CC1.[90Y+3] [[90Y]Y-DOTA-Tz]
Cerenkov imaging: tumor uptake ([2]; images at 15 min p.i.): some tumor uptake
Cerenkov imaging: activity localization ([2]; images at 1 h after the injection): majority of the activity localized in the kidneys
